Calls of active or inactive are those of the source.
Key:
Cytochrome P450 3A4 = Cytochrome P450 3A4 (Homo sapiens, UniProt P08684); details: Potency;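 further: confirmatory qHTS run detecting inhibitors and substrates of CYP3A4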
[1] = A cytotoxicity screen of small molecule inhibitors of the PhoP region in Salmonella typhi identified in the primary screen. [Related pubchem assays: 1850, 1864, 1985 ]; format: functional
Nonstructural protein 1 = Nonstructural protein 1 (Influenza A virus, UniProt Q194T2); format: functional, Influenza A virus (A/California/07/2009(H1N1))
Chain of Nonstructural protein 1 (Q194T2 whole entry, the tested form may be a part): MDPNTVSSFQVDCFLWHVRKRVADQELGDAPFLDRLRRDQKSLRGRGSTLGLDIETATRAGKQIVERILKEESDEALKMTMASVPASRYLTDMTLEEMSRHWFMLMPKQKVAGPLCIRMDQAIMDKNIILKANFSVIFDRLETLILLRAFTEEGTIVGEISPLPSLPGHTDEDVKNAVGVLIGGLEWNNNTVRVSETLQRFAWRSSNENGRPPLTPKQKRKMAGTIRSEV

[2] = target: T1, RNA-binding protein pos-1 (Caenorhabditis elegans, UniProt G5EF15); test: inhibitors of POS-1/mex-3 RNA binding, dose response, biochemical, fluorescence polarization (AID 1964);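 further: purified POS-1 fused to maltose binding protein made in E. coli; potency of compounds blocking POS-1 binding to fluorescent RNA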
T1 sequence (G5EF15 whole entry): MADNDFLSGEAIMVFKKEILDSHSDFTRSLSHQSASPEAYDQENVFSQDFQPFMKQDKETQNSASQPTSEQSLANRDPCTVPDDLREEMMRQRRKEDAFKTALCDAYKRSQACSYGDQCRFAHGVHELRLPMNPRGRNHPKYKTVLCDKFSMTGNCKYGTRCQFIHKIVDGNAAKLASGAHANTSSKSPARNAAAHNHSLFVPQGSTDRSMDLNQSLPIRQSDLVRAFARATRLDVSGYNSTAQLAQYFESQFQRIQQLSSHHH

[3] = target: T2, Zinc finger protein mex-5 (Caenorhabditis elegans, UniProt Q9XUB2); test: MEX-5/TCR-2 RNA interaction inhibitors, dose response, biochemical, C. elegans, fluorescence polarization (AID 1960)
T2 sequence (Q9XUB2 whole entry): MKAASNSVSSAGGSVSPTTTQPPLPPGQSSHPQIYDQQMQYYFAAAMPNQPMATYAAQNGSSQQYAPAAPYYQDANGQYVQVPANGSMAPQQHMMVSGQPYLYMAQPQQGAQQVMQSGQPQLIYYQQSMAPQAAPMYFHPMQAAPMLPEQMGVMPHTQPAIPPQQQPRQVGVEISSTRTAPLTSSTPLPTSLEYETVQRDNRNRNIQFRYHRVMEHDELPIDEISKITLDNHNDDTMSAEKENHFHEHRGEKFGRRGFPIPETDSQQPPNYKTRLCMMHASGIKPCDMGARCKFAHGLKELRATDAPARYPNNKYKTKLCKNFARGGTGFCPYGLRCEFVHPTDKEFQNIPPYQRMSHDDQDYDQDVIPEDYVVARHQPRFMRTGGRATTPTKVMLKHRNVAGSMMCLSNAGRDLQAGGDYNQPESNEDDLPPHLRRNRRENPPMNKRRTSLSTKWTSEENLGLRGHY

Troponin, cardiac muscle = Troponin, cardiac muscle (Homo sapiens, UniProt P19429+P45379+P63316); test: Fluorescence-based biochemical high throughput dose response assay for activators of the calcium sensitivity of cardiac Regulated Thin Filaments (RTF). [Related pubchem assays (depositor defined):AID493008, AID493018, AID504382, AID504383]; format: protein-complex assay
[4] = target: T3, Carboxy-terminal domain RNA polymerase II polypeptide A small phosphatase 1 (Homo sapiens, UniProt Q9GZU7); test: inhibitors of CTDSP1, concentration-response testing, biochemical assay, absorbance-based, actives from ultra-high-throughput screening (AID 540297); format: functional
T3 sequence (Q9GZU7 whole entry): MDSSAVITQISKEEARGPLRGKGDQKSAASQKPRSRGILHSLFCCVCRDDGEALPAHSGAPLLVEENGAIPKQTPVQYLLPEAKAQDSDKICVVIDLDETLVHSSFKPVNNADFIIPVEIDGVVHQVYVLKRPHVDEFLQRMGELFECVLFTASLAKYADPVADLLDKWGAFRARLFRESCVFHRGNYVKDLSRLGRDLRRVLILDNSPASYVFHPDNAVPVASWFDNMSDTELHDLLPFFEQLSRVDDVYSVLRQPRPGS

[5] = target: Induced myeloid leukemia cell differentiation protein Mcl-1 (Homo sapiens, UniProt Q07820); format: functional
Chain of Induced myeloid leukemia cell differentiation protein Mcl-1 (Q07820 whole entry): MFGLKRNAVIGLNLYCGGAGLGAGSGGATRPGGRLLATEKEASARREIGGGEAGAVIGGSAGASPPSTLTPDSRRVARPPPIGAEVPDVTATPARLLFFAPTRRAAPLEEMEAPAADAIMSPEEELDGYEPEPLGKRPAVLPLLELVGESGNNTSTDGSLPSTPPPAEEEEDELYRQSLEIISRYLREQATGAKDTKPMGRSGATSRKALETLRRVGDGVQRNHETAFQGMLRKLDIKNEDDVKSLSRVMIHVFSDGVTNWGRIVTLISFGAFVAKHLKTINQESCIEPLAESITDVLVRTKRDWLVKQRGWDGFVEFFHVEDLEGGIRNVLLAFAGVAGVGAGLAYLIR

cells = format: functional
[6] = P. falciparum Dd2 growth inhibitors, dose response, SYBR Green, cherry-picked samples (AID 1159567); format: functional, cell-based
[7] = HepG2 cell cytotoxicity, dose response, cytotoxicity control, cherry-picked samples (AID 1159577); format: functional, cell-based

Chain of Cytochrome P450 3A4 (P08684 whole entry): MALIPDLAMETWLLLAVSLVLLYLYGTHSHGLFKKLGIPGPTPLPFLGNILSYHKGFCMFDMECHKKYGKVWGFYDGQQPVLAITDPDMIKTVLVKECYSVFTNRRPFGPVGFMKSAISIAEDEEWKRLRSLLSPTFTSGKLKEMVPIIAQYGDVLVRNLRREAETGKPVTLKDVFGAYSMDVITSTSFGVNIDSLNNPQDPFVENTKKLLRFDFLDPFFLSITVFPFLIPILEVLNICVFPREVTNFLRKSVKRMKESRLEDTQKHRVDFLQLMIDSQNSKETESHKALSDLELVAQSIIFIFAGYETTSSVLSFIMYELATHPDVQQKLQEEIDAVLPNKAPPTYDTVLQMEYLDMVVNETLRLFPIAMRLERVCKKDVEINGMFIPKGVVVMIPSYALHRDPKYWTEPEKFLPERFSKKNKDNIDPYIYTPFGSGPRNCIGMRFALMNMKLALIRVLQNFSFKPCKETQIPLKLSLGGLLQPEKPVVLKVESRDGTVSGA

With `CN1C[C@@H](CO)C=C2c3cccc4[nH]cc(c34)CC21` (some centres undefined) the AC50 (Cytochrome P450 3A4) was 31.6 µM (inconclusive).

With `O=[N+]([O-])c1cccc(NNS(=O)(=O)c2ccccc2F)c1` the EC50 [1] was > 50 µM (active).

For `COc1cc(CNCCCN2CCOCC2)c(Br)cc1OCC(=O)Nc1ccccc1C`, the EC50 [1] was > 50 µM (active).

For `CC1CCN(C2=C(NS(=O)(=O)c3ccccc3)C(=O)c3ccccc3C2=O)CC1`, the IC50 (Nonstructural protein 1) was 11.3 µM (active).

For `Cc1ccc(/C=C2\Oc3c(ccc(O)c3CN3CCN(CCO)CC3)C2=O)cc1`, the EC50 [2] was 36 µM (active), the EC50 [3] was 73.9 µM (active) and the EC50 (Troponin, cardiac muscle) was 19.5 µM (inactive).

With `CCOC(=O)N1CCC(=NNc2ccnc3cc(Cl)ccc23)CC1` the EC50 [1] was > 50 µM (active).

In the case of `CCCCCCC1=Cc2cc(OC)c(OC)cc2C(CC(=O)/C=C/OC)O1` (centres undefined), the AC50 (Cytochrome P450 3A4) is reported as 5.01 µM (inconclusive).

With `Cc1ccc(NC(=O)COc2ccc(/C=N/NC(=O)CSCc3ccccc3)cc2)cc1` the IC50 [4] was 9.82 µM (active) and the EC50 (Troponin, cardiac muscle) was > 71.5 µM (inactive).

In the case of `Oc1ccc(N=Nc2cccc(Cl)c2)cc1/C=N/c1ccc(N2CCOCC2)cc1`, the IC50 [5] is reported as 5.14 µM (not active).

With `Clc1cccc(/C=N\Nc2nccs2)c1` the IC50 (cells) was 12.7 µM (active) and the EC50 [1] was > 50 µM (active).

For `C[C@@H]1CN([C@@H](C)CO)C(=O)Cc2cc(NC(=O)Nc3ccccc3)ccc2O[C@H]1CN(C)Cc1ccc(-c2ccccc2)cc1`, the AC50 [6] was 1.87 µM (active) and the AC50 [7] was 18.5 µM (active).

In the case of `C[C@H]1CN([C@@H](C)CO)S(=O)(=O)c2ccc(C#Cc3ccc(F)cc3)cc2O[C@@H]1CN(C)C(=O)NC1CCCC1`, the AC50 [6] is reported as 6.21 µM (active) and the AC50 [7] is reported as 25.6 µM (active).

In the case of `COc1ccc(-c2oc3ccccc3c(=O)c2O)cc1`, the AC50 (Cytochrome P450 3A4) is reported as 3.98 µM (inconclusive).

Source: ChEMBL document CHEMBL1201862, “PubChem BioAssay data set” (2004)
